Results reported in patent US9394289B2, “Inhibitors of c-fms kinase” (Janssen Pharmaceutica NV, priority 2006, dated 2016).

What was measured:
[1] = test system: mouse bone-marrow derived macrophages (BMDM); assay: CSF-1-driven mouse bone-marrow derived macrophages proliferation assay (BrDU incorporation); format: cell-based; conditions: Mus musculus, BMDM, 30 hrs culture, read-out: mCSF driven proliferation BMDM (Mouse) IC-50
Method: CSF-1-Driven Mouse Bone-Marrow Derived Macrophages Assay
Macrophages are derived by culturing mouse bone marrow in alpha-MEM supplemented with 10% FCS and 50 ng/ml recombinant mouse CSF-1 in bacteriologic dishes. On the sixth day, macrophages are detached from dishes, washed, and resuspended to 0.05 million cells/ml in alpha-MEM containing 10% FCS. One hundred ul of cell suspension are distributed per well into 96 well culture plates. Wells are further supplemented with the addition of 50 ul media containing 15 ng/ml CSF-1, 3 uM Indomethacin, and 3× of a dilution series of test compounds. The cells are cultured for 30 hrs at 37 degrees and 5% CO2. During the final six hours, cultures are supplemented with an additional 30 ul of media containing a 1:500 dilution of bromodeoxyuridine (BrDU). At the end of the culture period, the plates are spun at 1000 RPM for 1 minute and 130 ul of media is removed with a pipet and replaced with 150 ul of fixative solution for 1 hour @ room temperature. The fixative is then dispelled from the plates and the plates allowed to air dry. Incorporation of BrDU into the fixed, dried cells is quantified using a specific ELISA.

[2] = molecular target: c-fms (Homo sapiens (Human), UniProt P07333); assay: Autophosphorylation fluorescence polarization competition immunoassay for c-fms inhibition; format: biochemical; conditions: averages of three independent measurements; table head says 1 nM c-fms, method says 10 nM c-fms, 1 mM ATP; read-out: 1 nM c-fms; peptide Pi assay IC-50
Method: Fluorescence Polarization Competition Immunoassay
The assay buffer used was 100 mM 4-(2-hydroxyethyl)piperazine 1-ethanesulfonic acid (HEPES), pH 7.5, 1 mM 1,4-dithio-DL-threitol (DTT), 0.01% (v/v) Tween-20. Compounds were diluted in assay buffer containing 4% dimethylsulfoxide (DMSO) just prior to the assay. To each well, 5 μL of compound were added followed by the addition of 3 μL of a mix containing 33 nM c-fms (Johnson & Johnson PRD) and 16.7 mM MgCl2 (Sigma) in assay buffer. The kinase reaction was initiated by adding 2 μL of 5 mM ATP (Sigma) in assay buffer. […] Control reactions were ran in each plate: in positive and negative control wells, assay buffer (made 4% in DMSO) was substituted for the compound; in addition, positive control wells received 1.2 μL of 50 mM ethylenediaminetetraaceticacid (EDTA).
The plates were incubated at room temperature for 45 min. At the end of the incubation, the reaction was quenched with 1.2 μL of 50 mM EDTA (EDTA was not added to the positive control wells at this point; see above). Following a 5-min incubation, each well received 10 μL of a 1:1:3 mixture of anti-phosphotyrosine antibody, 10×, PTK green tracer, 10× (vortexed), FP dilution buffer, respectively (all from PanVera, cat. #P2837). The plate was covered, incubated for 30 min at room temperature and the fluorescence polarization was read on the Analyst. The instrument settings were: 485 nm excitation filter; 530 nm emission filter; Z height: middle of well; G factor: 0.93. […] The reported IC50 values are averages of three independent measurements.

Sequence of c-fms (P07333 20-972): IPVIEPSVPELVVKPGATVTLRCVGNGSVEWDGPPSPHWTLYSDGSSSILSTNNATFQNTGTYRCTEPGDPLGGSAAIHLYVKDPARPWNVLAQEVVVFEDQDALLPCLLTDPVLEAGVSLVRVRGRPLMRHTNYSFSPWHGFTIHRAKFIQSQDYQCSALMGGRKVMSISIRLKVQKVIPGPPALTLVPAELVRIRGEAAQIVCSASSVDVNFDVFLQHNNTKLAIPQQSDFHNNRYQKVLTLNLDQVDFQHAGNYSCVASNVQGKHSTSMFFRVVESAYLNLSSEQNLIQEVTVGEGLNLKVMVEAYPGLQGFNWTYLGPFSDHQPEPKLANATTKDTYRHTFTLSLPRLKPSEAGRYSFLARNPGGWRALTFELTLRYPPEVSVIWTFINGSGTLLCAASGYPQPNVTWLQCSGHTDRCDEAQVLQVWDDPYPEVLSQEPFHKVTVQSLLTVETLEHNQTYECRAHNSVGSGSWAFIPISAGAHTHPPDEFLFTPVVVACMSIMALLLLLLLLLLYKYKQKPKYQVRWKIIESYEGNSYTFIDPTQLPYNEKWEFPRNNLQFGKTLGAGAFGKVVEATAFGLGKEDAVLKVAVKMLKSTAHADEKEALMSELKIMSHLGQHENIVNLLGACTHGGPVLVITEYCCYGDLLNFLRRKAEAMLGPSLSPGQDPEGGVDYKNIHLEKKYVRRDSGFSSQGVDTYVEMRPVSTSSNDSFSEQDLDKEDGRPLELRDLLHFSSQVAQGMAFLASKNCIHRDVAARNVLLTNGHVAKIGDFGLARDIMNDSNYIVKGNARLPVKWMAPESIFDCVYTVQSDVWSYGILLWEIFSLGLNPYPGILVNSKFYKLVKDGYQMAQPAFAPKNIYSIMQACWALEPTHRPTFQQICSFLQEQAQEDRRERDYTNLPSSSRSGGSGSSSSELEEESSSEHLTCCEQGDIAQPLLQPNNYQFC

Row | IC50 [2] [nM] | Compound | IC50 [1] [nM]
1 | 82 | CC1(C)CC=C(c2cc(C3(C#N)C[C@]4(C)CC[C@](C)(C3)O4)ccc2NC(=O)c2nc(C#N)c[nH]2)CC1 (stereo partly shown) [Example 94, 4-Cyano-1H-imidazole-2-carboxylic acid [4-(3-cyano-1,5-dimethyl-8-oxa-bicyclo[3.2.1]oct-3-yl)-2-(4,4-dimethyl-cyclohex-1-enyl)-phenyl]-amide] | > 100
2 | 26 | CC1(C)CC=C(c2cc(C3(C#N)CC(C)(C)OC(C)(C)C3)ccc2NC(=O)c2nc(C#N)c[nH]2)CC1 [Example 95, 4-Cyano-1H-imidazole-2-carboxylic acid [4-(4-cyano-2,2,6,6-tetramethyl-tetrahydro-pyran-4-yl)-2-(4,4-dimethyl-cyclohex-1-enyl)-phenyl]-amide] | 29
